# Source: patent publication US8518995B2, “Methods and compositions for the treatment of irritable bowel syndrome” (MediciNova, Inc., priority 2010, dated 2013)
# What was measured:
# [1] = test system: subjects suffering from IBS; details: including increase in the heart rate and finger tremors; cited from earlier work
# [2] = test system: subjects with the irritable bowel syndrome (IBS); details: including increase in systolic blood pressure and the heart rate; cited from earlier work
# [3] = test system: subjects suffering from IBS; test: Effects of MN-221 on human esophageal peristalsis (manometry, heart rate, finger tremor) in IBS subjects; assay type: in vivo
# Text: This study investigates the inhibitory influence of beta-2-adrenergic stimulation by MN-221 on esophageal motility with little to no incidence of significant adverse side effects. In the study, esophageal peristalsis is studied in subjects suffering from IBS. The subjects have no history of gastrointestinal or cardiovascular disease. Subjects are considered to have the irritable bowel syndrome if they have an abdominal pain with or without diarrhea or constipation. Relief of pain by defecation, abdominal distension, a feeling of incomplete evacuation, and/or a response to a high-residue diet are taken as useful additional symptoms. The blood picture, erythrocyte sedimentation rate, and results of sigmoidoscopy, rectal biopsy, and barium enema are normal in all subjects. The symptoms of the subjects, including dysphagia and heartburn, are recorded on data sheets for correlation with manometric findings.
# Each subject is orally given MN-221, 5 mg three times daily, for 10 days. […] At each session esophageal peristaltic pressure, heart rate, and finger tremor are assessed.
# Manometric studies are performed with a triple-lumen tube with each channel perfused with water, 0.5 ml/min, via a low-compliance capillary system. […] Thus, pressure is recorded about 18 cm proximal to the LES (proximal esophagus), about 10 cm proximal to the LES (middle esophagus), and about 2 cm proximal to the LES (distal esophagus).
# After a resting period of 20 min., esophageal peristalsis in response to 20 wet swallows (water bolus of 5 ml, room temperature) is recorded. […] Each recording curve is coded and read by one investigator who is not aware of the subject's study day. The amplitude of the peristaltic pressure waves is measured at each recording point, and an individual mean value for the 20 swallows is calculated for each examination.
# At each session, heart rate is recorded in the resting subject and calculated as a mean value for 2 min. Finger tremor are assessed with an optical method (e.g., Opto-Tremor Graph, Draco), and the middle finger of the right hand is chosen for measurement. […]
# [4] = test system: subjects with the irritable bowel syndrome (IBS); test: Effects of MN-221 on rectosigmoid motility (intraluminal pressure, systemic effects, plasma levels) in IBS subjects; assay type: in vivo, human
# Text: In this study, subjects with the irritable bowel syndrome (IBS) are studied with regard to the effects of MN-221 on rectosigmoid motility.
# Men and women aged 24-52 years are included in the study. The diagnosis of IBS is made on the basis of the following criteria: 1) symptoms lasting more than few months; 2) abdominal pain with or without relation to meals; 3) constipation or a combination of diarrhea and constipation; 4) normal colonic barium enema and sigmoidoscopy; 5) negative test for lactose intolerance; and 6) negative finding on stool culture.
# The subjects are all symptomatic at the time of the study. The subjects are taking no medications of significant importance for intestinal motility. Informed consent is obtained from each subject.
# After a 12 hours fast, all subjects undergo sigmoidoscopy without air insufflations. A probe with one to three polyethylene catheters is inserted through the sigmoidoscope so that the proximal catheter is about 18-20 centimeter (cm) from the anal margin, the tip of the second catheter about 5 cm below, and the third catheter is positioned just inside the internal sphincter. An about 5-cm-long balloon surrounds each of the two distal catheters. The distal balloon is inflated with about 20 milliliter (mL) of air to prevent the device from moving in the distal direction. The balloon in the upper rectum, connected to the middle catheter, is kept inflated with about 80 ml of air in 10 of the subjects and with about 60 mL in the other 2 subjects throughout the recording sessions. Each subject has the same balloon volume during the three examinations.
# Intra-luminal pressure is measured from the proximal rectal balloon and the sigmoid catheter (inside diameter, about 1.67 millimeter (mm)), which is open tipped with a side orifice of about 1.5 mm diameter.
# The catheter is continuously perfused with body-temperature water at 3.5 mL/h by means of an infusion pump. Pressure is transmitted to transducers (e.g., Statham P 23 Db, Statham Instruments, Hato Ray, Puerto Rico) and recorded on a Grass RPS 7C polygraph (e.g., Grass Instrument Co., Quincy, Mass.). To determine motility, the area under the pressure curves is continuously determined by integrators (such as, e.g., Grass 7P 10). As an index of contractile activity, the total area minus the area under an estimated basal pressure line is used. The principle for motility calculation is described in detail in Abrahamsson et al. Dig Dis Sci 1983, 28, 590-594.
# Motility index is expressed as kPa×min (1 kPa×min=7.5 mm Hg×min). The study is randomized and double blinded. Each subject is investigated on 3 different days with not less than 5 days between each investigation to avoid any possible influence of an earlier drug infusion. After an initial rest period of 30 minutes (min), pressure is quantified for three periods of 25 min. The first period, designated the control period, is preceded by saline infusion, 1 mL/min, for 5 min. The following two test periods are each preceded by an infusion of 0.25 mg MN-221 intravenously to a total amount of 0.50 mg on the 1st day, 1.0 mg on the 2nd day, and 5 ml placebo (plus 5 mL saline) on the 3rd day.
# The blood pressure and heart rate are measured by a sphygmomanometer 10 and 25 min after the end of each drug infusion. […]
# Results are expressed as the mean±SEM. […]
# The plasma concentration of MN-221 is determined by liquid chromatography and mass spectrometry.
# [5] = during oral medication, 5 mg three times daily, 10 days
SMILES,adverse side effects (comparison drug) [1],adverse side effects (comparison drug) [2],"finger tremor [3, 5]","heart rate [3, 5]","adverse side effects ([3]; oral medication, IBS subjects)",complaints or discomfort among the subjects ([4]; after infusion of MN-221),"plasma concentrations ([4]; after intravenous infusion, 0.50 and 1.0 mg total)",systolic and diastolic blood pressure and heart rate ([4]; infusion to a total of 0.50 mg intravenously),systolic and diastolic blood pressure and heart rate ([4]; infusion to a total of 1.0 mg intravenously),"adverse side effects ([4]; intravenous infusion, IBS subjects)"
CC(C)(C)NCC(O)c1cc(O)cc(O)c1 (stereo not shown) [terbutaline],undesirable incidence of significant adverse side effects,undesirable incidence of significant adverse side effects,,,,,,,,
"CN(C)C(=O)COc1ccc2c(c1)CC(NCC(O)c1ccc(O)c(CCO)c1)CC2 (single isomer, unassigned; (-)) [MN-221]",,,do not change,do not change,little to no adverse side effects,No major complaints or discomfort,within the therapeutic levels,no significant increase in the systolic blood pressure; decrease in the diastolic blood pressure; and/or increase in the heart rate,no significant increase in systolic blood pressure; decrease in diastolic blood pressure; and/or increase in heart rate,little to no adverse side effects
